# Patent US20210113492A1, “METHOD FOR INHIBITING PROLIFERATION AND METASTASIS OF CANCER CELLS BY USING NAPHTHOQUINONE DERIVATIVE” (National Tsing Hua University, priority 2019, published 2021)
# Assays:
# [1] = tested on: human primary glioblastoma cells (U87); assay: MTT survival assay, U87; type: cell-based; conditions: 48 h, read-out: IC50, survival rate
# Method: According to the present invention, Human primary glioblastoma cell line U87 were obtained from the American Type Culture Collection (ATCC® HTB-14™, Manassas, Va., USA) and grown in DMEM medium supplemented with 10% FBS, 1% MEM Non-Essential Amino Acids Solution (Invitrogen) and 1% penicillin/streptomycin (Invitrogen). The incubator was maintained at 5% CO2 and a constant temperature of 37° C., and the culture medium was changed every two days.
# (§1) Isoplumbagin (AKOS006277326, acquired from AKos GmbH, Steinen, Germany) was dissolved in dimethyl sulfoxide (DMSO) and added to the medium, so that the final concentration of DMSO was less than 0.1%. The survival rate of isoplumbagin on OC3-IV2, U87, H1299 and PC3 cell lines was determined using the 3-(4,5-dimethylthiazol-2-yl)-2,5-diphenyltetrazolium bromide (MTT; Sigma-Aldrich) assays. 3×10^3 cells/well were seeded in 96-well plates. After incubation for 24 h, cells were treated with isoplumbagin at various concentrations (0, 1, 5, 10, 25, 50 and 100 μM) and incubated for a further 48 h. At the end of treatment, 10 μL 5 mg/mL MTT was added to each well. After incubation at 37° C. for 3 h, medium was removed and DMSO was added to each well to dissolve reduced MTT product formazan. The absorbance of dissolved formazan was measured at 550 nm wavelengths by a spectrophotometer. […]
# [2] = tested on: oral squamous cell carcinoma cells (OC3-IV2); assay: Boyden chamber invasion assay, OC3-IV2; type: cell-based, human; conditions: 5, 7.5 and 10 μM, 24 h, dose dependency (FIG. 2A)
# Method: Cells were harvested by […] and resuspended in a serum-free medium with 0.1% BSA. Then, […] of cell suspension (2×10^5 cells) was seeded into the upper insert of SPLInsert with Polyethylene terephthalate (PET) membrane (pore size: 8.0 μm) (SPL Lifesciences, Korea) pre-coated with matrigel (BD Biosciences, San Jose, Calif.). The bottom well of 24-well plate of SPLInsert was filled with cell medium containing 10% FBS with different concentrations of isoplumbagin (5, 7.5 and 10 μM, Experimental group of oral squamous cell carcinoma cells (OC3-IV2); 2.5, 5 and 10 μM, Experimental groups of human primary glioblastoma cells (U87), human non-small cell lung carcinoma cells (H1299), human prostate cancer cells (PC3) and human cervical cancer cells (Hela)) or without isoplumbagin (DMSO added). […] Number of cells was counted using Image J. Relative invasion ability was calculated as cell number per area.
# FIGS. 2A-2E show the inhibitory effect of different doses of isoplumbagin on invasion for oral squamous cell carcinoma cells (OC3-IV2), human primary glioblastoma cells (U87), human non-small cell lung carcinoma cells (H1299), prostate cancer cells (PC3) and cervical cancer cells (Hela) assessed with the Boyden chamber assays. *Compared with solvent control (DMSO). […]
# OC3-IV2 cells = assay: Oral orthotopic OC3-IV2 xenograft mice model; type: in vivo, CB17/lcr-Prkdc^scid/CrlNarl mice; conditions: 2 mg/kg intraperitoneal once every 3 days, day 0-18
# Method: In this example, the anti-tumor effect of isoplumbagin in xenograft mice model was explored. In oral orthotopic xenograft CB17/lcr-Prkdc^scid/CrlNarl mice model, 1×10^6 OC3-IV2 cells were harvested and re-suspended in 100 μl PBS. The cells were injected through the oral buccal mucosa into six-week-old male CB17/lcr-Prkdc^scid/CrlNarl mice (National Laboratory Animal Center, Taiwan). When the tumor size in oral buccal reached approximately 25 mm^3 at 14 days after inoculation of the OC3-IV2 cells, mice were randomly assigned into two groups (n=3 per group): vehicle (DMSO) control group and 2 mg/kg isoplumbagin group. Treatments were given via intraperitoneal injection once every 3 days in the morning for 2 weeks. During this period, mice weights and tumor volumes (length×width^2/2) were recorded every 3 days. At the end of the study (on day 18), the mice were sacrificed by carbon dioxide asphyxiation. […]
# FIGS. 7A-7D show the anti-tumor effect of isoplumbagin in xenograft mice model. […] Tumor volume (FIG. 7A) and body weight (FIG. 7B) were measured from day 0-18 after treatment. […]
# [3] = tested on: oral squamous cell carcinoma cells (OC3-IV2); assay: MTT survival assay, OC3-IV2; type: cell-based; conditions: Homo sapiens, 48 h, read-out: IC50, survival rate
# Method: According to the present invention, human oral cancer cell line OC3-IV2 cells (Lin S C et al, J Oral Pathol Med. 2004 February; 33(2):79-86 and Lu Y C et al, Cancer Prey Res (Phila). 2012 April; 5(4):665-74) were cultured in a 1:1 ratio of Dulbecco's modified Eagle medium (DMEM; Invitrogen) and keratinocyte serum-free medium (KSFM; Invitrogen) containing 10% fetal bovine serum (FBS; Invitrogen, Carlsbad, Calif., USA), 1% L-glutamine (L-Gln, Invitrogen) and 1% antibiotic-antimycotic (AA, Invitrogen). Cells were maintained in a humidified atmosphere containing 5% CO2 at 37° C., and the culture medium was replaced every 2 days.
# as §1, with “After incubation at 37° C. for 3 h, medium was removed and DMSO was added to each well to dissolve reduced MTT product formazan.” left out
smiles,measurement,setting,value
"CC1=CC(=O)c2cccc(O)c2C1=O [isoplumbagin, 5-hydroxy-3-methyl-1,4-naphthoquinone]",IC50,[1],0.45 µg/mL
same,cancer cells migrating through the membrane (invasion),[2],decrease significantly
same,"tumor growth (tumor volume, tumor weight)",OC3-IV2 cells,can effectively inhibit tumor growth
same,IC50,[3],1.02 µg/mL
